We go through 28 molecules from ChEMBL document CHEMBL3632591, “Discovery and structural diversity of the hepatitis C virus NS3/4A serine protease inhibitor series leading to clinical candidate IDX320” (Bioorg Med Chem Lett, 2015).

Data set [1] in a line: Inhibition of recombinant full length HCV genotype 1b NS3/4A protease by FRET assay. On the set-up: species or system Hepatitis C virus subtype 1b.
In data set [2] the test system is Hepatitis C virus. In words: Antiviral activity against HCV genotype 1b infected in human HuH7 cells after 3 days by luciferase assay. It is filed as functional, organism-based, Hepacivirus hominis. Conditions: Huh-7, 72 h.
Data set [3] can be described thus: Cytotoxicity against human HuH7 cells by colorimetric proliferation assay. It is filed as cell-based, Huh-7.
Data set [4] can be described thus: Intrinsic clearance in rat liver microsomes. Conditions: read-out: CLH. It is filed as ADME.
The nature of data set [5]: Half life in rat liver microsomes. It is filed as ADME.
A short description of data set [6]: Intrinsic clearance in rat cryopreserved hepatocytes assessed per 10^6 cells. It is filed as ADME, cell-based, Hepatocyte. The settings on record: read-out: CLH.
Data set [7] can be described thus: Intrinsic clearance in human liver microsomes. It is filed as ADME. The settings on record: read-out: CLH.
The nature of data set [8]: Intrinsic clearance in monkey liver microsomes. It is filed as ADME, Macaca mulatta. The settings on record: rhesus monkey, read-out: CLH.

Some results are limits rather than exact numbers.

As for `COc1ccc2c(O[C@H]3C[C@H]4C(=O)N(C)CCCC/C=C/[C@@H]5C[C@@]5(C(=O)NS(=O)(=O)C5(C)CC5)NC(=O)N4C3)cc(-c3nc(C(C)C)cs3)nc2c1`, the IC50 in data set [1] came out at 1.7 nM. In data set [2], this molecule had a half-maximal effective concentration (EC50) of 508 nM. The same molecule came in with a CC50 in data set [3] of 42700 nM.
With `COc1ccc2c(O[C@H]3C[C@H]4C(=O)N(C)CCCC/C=C/[C@@H]5C[C@@]5(C(=O)NS(=O)(=O)C5(C)CC5)NC(=O)N4C3)cc(-c3nc(C(C)C)cs3)nc2c1C`, in data set [1], the IC50 turned out to be 1.8 nM. The microsomal CLint is 12.6 µL/min/mg in data set [4], 9.8 µL/min/mg in data set [7] and 37.8 µL/min/mg in data set [8]. Also, a half-maximal effect in data set [2] (EC50) was put at 72 nM. Also, the half-life in data set [5] worked out at 112 min. The hepatocyte CLint in data set [6] turned out to be 12.3 µL/min/1e6 cells. The molecule also showed a CC50 in data set [3] of over 75000 nM.
In the case of `COc1ccc2c(O[C@H]3C[C@H]4C(=O)N(C)CCCC/C=C/[C@@H]5C[C@@]5(C(=O)NS(=O)(=O)C5(C)CC5)NC(=O)N4C3)cc(-c3nc(C(C)C)cs3)nc2c1F`, the half-inhibitory concentration (IC50) in data set [1] was 3.5 nM. Moreover, in data set [2], the EC50 turned out to be 538 nM. Besides, the midpoint of cytotoxicity in data set [3], the CC50, lay at 33500 nM.
Regarding `COc1ccc2c(O[C@H]3C[C@H]4C(=O)N(C)CCCC/C=C/[C@@H]5C[C@@]5(C(=O)NS(=O)(=O)C5(C)CC5)NC(=O)N4C3)cc(-c3nc(C(C)C)cs3)nc2c1Cl`, the IC50 in data set [1] is 2.3 nM. For the same molecule, the microsomal CLint in data set [4] was 9.7 µL/min/mg; in data set [7], 18.5 µL/min/mg; in data set [8], 66.8 µL/min/mg. This molecule also displayed an EC50 in data set [2] of 56 nM. The molecule also gave a half-life in data set [5] of 143 min. The hepatocyte CLint in data set [6] came to 11.2 µL/min/1e6 cells. This molecule had a cytotoxic concentration (CC50) in data set [3] of 48500 nM.
As to `COc1cc2c(O[C@H]3C[C@H]4C(=O)N(C)CCCC/C=C/[C@@H]5C[C@@]5(C(=O)NS(=O)(=O)C5(C)CC5)NC(=O)N4C3)cc(-c3nc(C(C)C)cs3)nc2cc1Cl`, the IC50 in data set [1] turned out to be 8.6 nM. The same molecule came in with a concentration for a half-maximal effect (EC50) in data set [2] of 191 nM. This molecule also gave a CC50 in data set [3] of over 75000 nM.
`COc1ccc2c(O[C@H]3C[C@H]4C(=O)N(C)CCCC/C=C/[C@@H]5C[C@@]5(C(=O)NS(=O)(=O)C5(C)CC5)NC(=O)N4C3)cc(-c3nc(C(C)C)cs3)nc2c1Br`: the IC50 in data set [1] turned out to be 0.5 nM. For the same molecule, it took 29 nM to reach a half-maximal effect in data set [2] (EC50). This molecule gave a CC50 in data set [3] of 51200 nM.
For the molecule `COc1ccc2c(O[C@H]3C[C@H]4C(=O)N(C)CCCC/C=C/[C@@H]5C[C@@]5(C(=O)NS(=O)(=O)C5CC5)NC(=O)N4C3)cc(-c3nc(C4CC4)cs3)nc2c1Cl`, in data set [1], the concentration for half-maximal inhibition (IC50) amounted to 1 nM. In addition, in data set [2], the EC50 turned out to be 21 nM. Also, it took 31200 nM to reach half-maximal cytotoxicity in data set [3] (CC50).
Regarding `COc1ccc2c(O[C@H]3C[C@H]4C(=O)N(C)CCCC/C=C/[C@@H]5C[C@@]5(C(=O)NS(=O)(=O)C5(C)CC5)NC(=O)N4C3)cc(-c3nc(C4CCC4)cs3)nc2c1Cl`, in data set [1], the IC50 was determined as 1.3 nM. In addition, the EC50 in data set [2] stood at 29 nM. In addition, the CC50 in data set [3] turned out to be 75000 nM.
As to `COc1ccc2c(O[C@H]3C[C@H]4C(=O)N(C)CCCC/C=C/[C@@H]5C[C@@]5(C(=O)NS(=O)(=O)C5(C)CC5)NC(=O)N4C3)cc(-c3cc(C(C)C)on3)nc2c1Cl`, the IC50 in data set [1] was 3.7 nM. Besides, in data set [2], the midpoint of the response, the EC50, lay at 669 nM. Moreover, the CC50 in data set [3] amounted to 75000 nM.
On to `COc1ccc2c(O[C@H]3C[C@H]4C(=O)N(C)CCCC/C=C/[C@@H]5C[C@@]5(C(=O)NS(=O)(=O)C5(C)CC5)NC(=O)N4C3)cc(-c3csc(C(C)C)n3)nc2c1Cl`, for which, in data set [1], the IC50 is 0.8 nM. The EC50 in data set [2] amounted to 32 nM. Moreover, the CC50 in data set [3] was 30200 nM.
The corresponding values for `COc1ccc2c(O[C@H]3C[C@H]4C(=O)N(C)CCCC/C=C/[C@@H]5C[C@@]5(C(=O)NS(=O)(=O)C5(C)CC5)NC(=O)N4C3)cc(-c3csc(C(F)(F)F)n3)nc2c1Cl` are 1 nM, 19 nM and 59000 nM.
As for `COc1ccc2c(O[C@H]3C[C@H]4C(=O)N(C)CCCC/C=C/[C@@H]5C[C@@]5(C(=O)NS(=O)(=O)C5CC5)NC(=O)N4C3)cc(-c3csc(C(F)(F)F)n3)nc2c1C`, the IC50 in data set [1] was found to be 0.9 nM. Also, the microsomal CLint was found to be 23.7 µL/min/mg in data set [4], 27.1 µL/min/mg in data set [7] and 39.9 µL/min/mg in data set [8]. The EC50 in data set [2] amounted to 8 nM. For the same molecule, the half-life in data set [5] is 59 min. The hepatocyte CLint in data set [6] was determined as 30 µL/min/1e6 cells. Also, the CC50 in data set [3] came out at 75000 nM.
Take `COc1ccc2c(O[C@H]3C[C@H]4C(=O)N(C)CCCC/C=C/[C@@H]5C[C@@]5(C(=O)NS(=O)(=O)C5(C)CC5)NC(=O)N4C3)cc(-n3cc(C(C)C)cn3)nc2c1C`: the IC50 in data set [1] turned out to be 0.9 nM. Moreover, the concentration giving a half-maximal response (EC50) in data set [2] worked out at 65 nM. It took 9610 nM to reach half-maximal cytotoxicity in data set [3] (CC50).
The corresponding values for `COc1ccc2c(O[C@H]3C[C@H]4C(=O)N(C)CCCC/C=C/[C@@H]5C[C@@]5(C(=O)NS(=O)(=O)C5(C)CC5)NC(=O)N4C3)cc(-n3cc(C(F)(F)F)cn3)nc2c1Cl` are 0.4 nM, 27 nM and 21900 nM.
The corresponding values for `COc1ccc2c(O[C@H]3C[C@H]4C(=O)N(C)CCCC/C=C/[C@@H]5C[C@@]5(C(=O)NS(=O)(=O)C5(C)CC5)NC(=O)N4C3)cc(-n3cc(C(C)C)nn3)nc2c1Cl` are 7.3 nM, 593 nM and 28500 nM.
As for `COc1ccc2c(O[C@H]3C[C@H]4C(=O)N(C)CCCC/C=C/[C@@H]5C[C@@]5(C(=O)NS(=O)(=O)C5(C)CC5)NC(=O)N4C3)cc(C#N)nc2c1C`, the IC50 in data set [1] was 6.4 nM. Moreover, in data set [2], the EC50 is 499 nM. The half-maximal cytotoxic concentration (CC50) in data set [3] was 55800 nM.
For the molecule `C#Cc1cccc(-c2cc(O[C@H]3C[C@H]4C(=O)N(C)CCCC/C=C/[C@@H]5C[C@@]5(C(=O)NS(=O)(=O)C5(C)CC5)NC(=O)N4C3)c3ccc(OC)c(C)c3n2)c1`, the IC50 in data set [1] worked out at 7 nM. The molecule also displayed a concentration for a half-maximal effect (EC50) in data set [2] of 85 nM. The same molecule had a CC50 in data set [3] of 75000 nM.
The corresponding values for `COc1ccc2c(O[C@H]3C[C@H]4C(=O)N(C)CCCC/C=C/[C@@H]5C[C@@]5(C(=O)NS(=O)(=O)C5CC5)NC(=O)N4C3)cc(-c3nc(C)cs3)nc2c1Cl` are 1 nM, 22 nM and 75000 nM.
Consider `COc1ccc2c(O[C@H]3C[C@H]4C(=O)N(C)CCCC/C=C/[C@@H]5C[C@@]5(C(=O)NS(=O)(=O)C5CC5)NC(=O)N4C3)cc(-c3noc(C)n3)nc2c1C`, for which, in data set [1], the IC50 stood at 25.7 nM. Further, the EC50 in data set [2] is over 750 nM. Half-maximal cytotoxicity in data set [3] (CC50) was put at 75000 nM.
Consider `C#Cc1csc(-c2cc(O[C@H]3C[C@H]4C(=O)N(C)CCCC/C=C/[C@@H]5C[C@@]5(C(=O)NS(=O)(=O)C5(C)CC5)NC(=O)N4C3)c3ccc(OC)c(Cl)c3n2)n1`, for which the IC50 in data set [1] was 0.5 nM. This molecule also registered an EC50 in data set [2] of 4 nM. In data set [3], this molecule returned a CC50 of 17000 nM.
For `C#Cc1csc(-c2cc(O[C@H]3C[C@H]4C(=O)N(C)CCCC/C=C/[C@@H]5C[C@@]5(C(=O)NS(=O)(=O)C5(C)CC5)NC(=O)N4C3)c3ccc(OC)c(C)c3n2)n1`, in data set [1], the IC50 worked out at 0.9 nM. Further, the response in data set [2] was half-maximal at 2.7 nM (EC50). Besides, the midpoint of cytotoxicity in data set [3], the CC50, lay at 75000 nM.
For `C#Cc1csc(-c2cc(O[C@H]3C[C@H]4C(=O)N(C)CCCC/C=C/[C@@H]5C[C@@]5(C(=O)NS(=O)(=O)C5CC5)NC(=O)N4C3)c3ccc(OC)c(C)c3n2)n1` the same measures were 0.9 nM, 2.8 nM and 14400 nM.
The corresponding values for `C=Cc1csc(-c2cc(O[C@H]3C[C@H]4C(=O)N(C)CCCC/C=C/[C@@H]5C[C@@]5(C(=O)NS(=O)(=O)C5(C)CC5)NC(=O)N4C3)c3ccc(OC)c(Cl)c3n2)n1` are 0.8 nM, 4 nM and 57100 nM.
The corresponding values for `COc1ccc2c(O[C@H]3C[C@H]4C(=O)N(C)CCCC/C=C/[C@@H]5C[C@@]5(C(=O)NS(=O)(=O)C5(C)CC5)NC(=O)N4C3)cc(-c3nc(C#N)cs3)nc2c1Cl` are 10 nM, 89 nM and 75000 nM.
As to `COc1ccc2c(OC[C@@H]3C[C@H]4C(=O)N(C)CCCC/C=C/[C@@H]5C[C@@]5(C(=O)NS(=O)(=O)C5(C)CC5)NC(=O)N34)cc(-c3nc(C(C)C)cs3)nc2c1C`, the microsomal CLint amounted to 364 µL/min/mg in data set [4], 299 µL/min/mg in data set [7] and 500 µL/min/mg in data set [8]. In data set [5], the half-life turned out to be 3.8 min.
For `COc1ccc2c(OC[C@@H]3C[C@H]4C(=O)N(C)CCCC/C=C/[C@@H]5C[C@@]5(C(=O)NS(=O)(=O)C5(C)CC5)NC(=O)N34)cc(-c3nc(C(C)C)cs3)nc2c1Cl`, the results for the microsomal CLint in data set [4], in data set [7] and in data set [8] were 182 µL/min/mg, 472 µL/min/mg and 500 µL/min/mg, respectively. Besides, the half-life in data set [5] worked out at 8 min.
With `C#Cc1csc(-c2cc(O[C@H]3CCN4C(=O)N(C)CCCC/C=C/[C@@H]5C[C@@]5(C(=O)NS(=O)(=O)C5(C)CC5)NC(=O)[C@@H]4C3)c3ccc(OC)c(C)c3n2)n1`, in data set [1], the IC50 was 0.6 nM. Further, the midpoint of the response in data set [2], the EC50, lay at 0.2 nM. The molecule also returned a 50% cytotoxic concentration (CC50) in data set [3] of over 75000 nM.
`COc1ccc2c(O[C@H]3CCN4C(=O)N(C)CCCC/C=C/[C@@H]5C[C@@]5(C(=O)NS(=O)(=O)C5CC5)NC(=O)[C@@H]4C3)cc(-c3nc(C(F)(F)F)cs3)nc2c1C`: in data set [1], the IC50 worked out at 0.4 nM. The molecule also showed a concentration for a half-maximal effect (EC50) in data set [2] of 0.9 nM. This molecule also showed a CC50 in data set [3] of over 75000 nM.
